Tests used:
[1] = test system: NRVM; experiment: PE-mediated cardiomyocyte hypertrophy in NRVM (cell area measurement); format: cell-based, rat; settings: nanomolar doses of JQ1 (250 nM), PE 100 μM, 48 hours
Description: (§1) NRVM were isolated from the hearts of 2 day old Sprague-Dawley rat pups (Charles River) and maintained under standard conditions as described (Haldar et al., 2010). The cells were differentially plated for 1.5 h in cell culture dishes to remove contaminating non-myocytes. Unless otherwise stated, NRVM were plated at a density of 10^5 cells/mL. Cells were initially plated in growth medium (DMEM supplemented with 5% FBS, 100 U/mL penicillin-streptomycin, and 2 mM L-glutamine) for 24-36 hours and maintained in serum-free media thereafter (DMEM supplemented with 0.1% BSA, 1% insulin-transferrin-selenium liquid media supplement (Sigma 13146), 100 U/mL penicillin-streptomycin, and 2 mM L-glutamine). Media was changed every 2-3 days. Prior to stimulation with agonists, NRVM were maintained in serum-free medium for 48-72 hours. For hypertrophic stimulation, NRVM were incubated with JQ1 versus DMSO at indicated concentrations for 6 h followed by stimulation with PE (100 μM) for indicated timepoints.
NRVM were plated on glass coverslips in 6-well dishes at a density of 10^5 cells/mL. After treatments, cells were briefly fixed in PBS containing 2% PFA, permeabilized with PBST/0.1% Triton X-100, and blocked in PBST/5% horse serum. Primary antibody was anti-sarcomeric α-actinin (Sigma A7811) at 1:800. Fluorophore-tagged anti-mouse secondary antibody (α-mouse Alexa 488 green) was used at 1:1000 dilution. Coverslips were mounted on glass slides with mounting media containing DAPI. Quantitation of cardiomyocyte cell surface area was performed on α-actinin-stained cardiomyocytes using fluorescent microscopy and NIH Image J software as previously described (Liang et al., 2001). Analysis consisted of at least 100 cardiomyocytes in 20-30 fields at 400× magnification. This process was replicated in a least three independent experiments, and the data were combined.

[2] = test system: NRVM; experiment: PE-mediated pathologic gene induction in NRVM (qRT-PCR, gene expression profiling); format: cell-based, rat
Description: as §1
For tissue RNA, a 10-20 mg piece of mouse heart tissue was preserved in RNA Later stabilization reagent (Qiagen) followed by mechanical disruption/homogenization in PureZOL (BioRad) on a TissueLyser (Qiagen) using stainless steel beads (Qiagen). The aqueous phase was extracted with chloroform. RNA was purified from the aqueous phase using the Aurum purification kit (BioRad #732-6830) following manufacturer's instructions. For cellular samples, total RNA from NRVM was isolated using the High Pure RNA isolation kit (Roche #11828665001) with on-column DNAase treatment according to manufacturer's directions. Purified RNA was reverse transcribed to complementary DNA using the iScript™ RT Supermix (Biorad #170-8841) following manufacturer's protocol. Quantitative real-time PCR was performed using TaqMan chemistry (Fast Start Universal Probe Master (Roche cat#4914058001) and labeled probes from the Roche Universal Probe Library System) on a Roche LightCycler. Relative expression was calculated using the AACt-method with normalization to constitutive genes as indicated.
To determine the transcriptional effects of BET bromodomain inhibition during hypertrophic transformation, gene expression profiling (GEP) studies were performed in cultured NRVM at baseline and after PE stimulation (1.5, 6, 48 h) in the presence or absence of JQ1. These three timepoints were assessed to capture induction of early response genes such as c-Myc (Starksen et al., 1986) and the final hypertrophic gene program. […] A heat map of genes selected based on the highest magnitude of PE-mediated changes illustrates each of these clusters (FIG. 3A). […]

[3] = target: T1, BRD4 (Rattus norvegicus, UniProt A0A8I6A216); experiment: ChIP-qPCR of BRD4 and Pol II at the IL6 proximal promoter in NRVM; format: cell-based; settings: JQ1 500 nM, PE 100 μM, 90 min
T1 construct: endogenous in cells; host or cells: NRVM (primary neonatal rat ventricular cardiomyocytes)
Description: NRVM were plated in 15 cm dishes at 5×10^6 cells/dish. Chromatin pooled from approximately 15×10^6 NRVM were used for each immunoprecipitation. After indicated treatments, NRVM were fixed directly on the dish with 1% formaldehyde for 10 minutes followed by quenching with 0.125M glycine for 5 minutes. Chromatin was extracted, followed by shearing on a BioRuptor (Diagenode; total 16 cycles, hi-power, 30 sec on/off). The sonicated chromatin was immunoprecipitated with 5 μg of antibody bound to Dynabeads (Invitrogen) followed by extensive washing and elution. Immunoprecipitate and input chromatin samples were then reverse cross-linked followed by purification of genomic DNA. Target and non-target regions of genomic DNA were amplified by qRT-PCR in both the immunoprecipitates and input samples using Sybrgreen chemistry. Enrichment data were analyzed by calculating the immunoprecipitated DNA percentage of input DNA for each sample as previously described (Ott et al., 2012). Antibodies used in ChIP were BRD4 (Bethyl #A301-985A) and RNA Polymerase II (Santa Cruz N-20, sc-899).

[4] = test system: mice with myocardial infarction (MI); experiment: Large anterior wall myocardial infarction (permanent proximal LAD ligation) model; format: in vivo, mouse; settings: 25 or 50 mg/kg/day IP from postoperative day 5
Description: Mice were subjected to permanent proximal LAD ligation to create a large anterior wall myocardial infarction (MI). JQ1 or vehicle was begun at the indicated doses (25 mg/kg/day or 50 mg/kg/day, intraperitoneal injection) on postoperative day 5. […] JQ1 attenuates the development of (FIGS. 12B and 15B) LV systolic dysfunction, (FIGS. 12C and 15C) LV cavity dilation, (FIGS. 12D and 15D) LV wall thickening, and (FIGS. 12E and 15E) cardiomegaly after a large anterior wall myocardial infarction. (FIG. 12—N=5 per group; FIG. 15—N=5 in sham group, N=10 in MI group). […] After a myocardial infarction, abnormal remodeling of the heart occurs in distant areas of non-infarcted myocardium, leading to cardiac dilation, enlargement, and contractile dysfunction. This is a very common cause of heart failure. […] Neither this model nor the TAC models involve atherosclerosis. Therefore, the ability to protect the heart in these settings are unrelated to any effects on atherosclerosis.

With `Cc1sc2c(c1C)C(c1ccc(Cl)cc1)=N[C@@H](CC(=O)OC(C)(C)C)c1nnc(C)n1-2` [JQ1] the “phenylephrine (PE) mediated cellular hypertrophy (cardiomyocyte area)” value [1] was “significantly blocked”, the “PE-mediated gene induction, global gene expression profiling” value ([2]; 500 nM JQ1, 100 μM PE, 1.5, 6, 48 h) was “attenuate or completely abrogate” and the “PE-mediated c-myc induction (qRT-PCR)” value ([2]; JQ1 500 nM, PE 100 μM) was “does not suppress”. For the same molecule, the “PE-mediated induction of IL6 (qRT-PCR)” value ([2]; JQ1 500 nM, PE 100 μM) was “significantly attenuated”, the “PE mediated pathologic gene induction (hypertrophic marker genes, qRT-PCR)” value ([2]; JQ1 500 nM, PE 100 μM, 48 h) was “significantly blocked” and the “recruitment of endogenous BRD4 and Pol II to the proximal promoter of IL6 in response to PE” value [3] was “blocked this recruitment”. For the same molecule, the “development of LV cavity dilation after MI” value [4] was “attenuates”, the “development of LV systolic dysfunction after MI” value [4] was “attenuates” and the “development of LV wall thickening after MI” value [4] was “attenuates”. For the same molecule, the “development of cardiomegaly after MI” value [4] was “attenuates” and the “mortality, myocardial rupture, LV aneurysm formation vs. vehicle control” value [4] was “No excess mortality, myocardial rupture, and LV aneurysm formation”.

Reference: US20160095867A1, “BET INHIBITION THERAPY FOR HEART DISEASE” (DANA-FARBER CANCER INSTITUTE, INC., priority 2013, published 2016)
